Experimental data published in the supplement of paper PMC8633005.

Tests used:
Assay in all cases: drug sensitivity score (DSS) (DSS (unitless, 0-50 scale)); higher = more sensitive (stronger viability inhibition); extreme values may be limits of the assay
Conditions in all cases: 72 h; culture: 2D
[1] = test system: SK-MEL-28
Procedure, shortened: (§1)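 Melanoma cell lines and patient-derived melanoma cultures at 1000–1500 cells per well were exposed in 2D, in 384-well plates, to a 527-compound oncology library at five concentrations spanning a 10,000-fold range for 72 h at 37 °C. CellTiter-Glo luminescence then measured viability. From dose-response curves fitted in the in-house Breeze software, a drug sensitivity score, a modified area-under-curve measure, was obtained.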

[2] = test system: FM-MEL-6
Procedure, shortened: as §1

[3] = test system: FM-MEL-3
Procedure, shortened: as §1

[4] = test system: Bowes
Procedure, shortened: as §1

[5] = test system: FM-MEL-2
Procedure, shortened: as §1

[6] = test system: WM852
Procedure, shortened: as §1

[7] = test system: WM165
Procedure, shortened: as §1

[8] = test system: SK-MEL-2
Procedure, shortened: as §1

SMILES	drug sensitivity score [1]	drug sensitivity score [2]	drug sensitivity score [3]	drug sensitivity score [4]	drug sensitivity score [5]	drug sensitivity score [6]	drug sensitivity score [7]	drug sensitivity score [8]
CO[C@@H]1[C@H](N(C)C(=O)c2ccccc2)C[C@H]2O[C@]1(C)n1c3ccccc3c3c4c(c5c6ccccc6n2c5c31)C(=O)NC4 [Midostaurin]	4.3	2.3	5.4	5.1	3.5	8.1	14.6	2.9
CNC(=O)c1nn(C)c2c1C(C)(C)Cc1cnc(Nc3ccc(N4CCN(C)CC4)cc3)nc1-2 [Milciclib]	8.7	9	7.5	11	6.5	5.1	12	7
CCCCCCCCCCCCCCCCOP(=O)([O-])OCC[N+](C)(C)C [Miltefosine]	1.8	1.2	6	5.9	0.4	2	6.2	2.1
CO[C@@]12[C@H](COC(N)=O)C3=C(C(=O)C(C)=C(N)C3=O)N1C[C@@H]1N[C@@H]12 [Mitomycin C]	1.9	0.8	3.5	3.1	0.2	0	6.2	2
Clc1ccc(C(c2ccccc2Cl)C(Cl)Cl)cc1 (stereo unspecified) [Mitotane]	0	0	0	1	0	0	0	0
O=C1c2c(O)ccc(O)c2C(=O)c2c(NCCNCCO)ccc(NCCNCCO)c21 [Mitoxantrone]	6.1	5.4	3.9	6.7	7.1	5.5	16.8	3.4
CCS(=O)(=O)Nc1ccc(Oc2ccc(F)cc2F)c(-c2cn(C)c(=O)c3[nH]ccc23)c1 [Mivebresib]	12.2	15.8	16.2	17	16.3	0.4	24.2	9
Nc1ccccc1NC(=O)c1ccc(CNc2nccc(-c3cccnc3)n2)cc1 [Mocetinostat]	9.9	11.4	8.4	6.4	6.7	1.7	11.9	9.4
CCNC(=O)C[C@@H]1N=C(c2ccc(Cl)cc2)c2cc(OC)ccc2-n2c(C)nnc21 [Molibresib]	1.8	5	4.8	3.8	3.8	0	6.5	0.5
N#CCNC(=O)c1ccc(-c2ccnc(Nc3ccc(N4CCOCC4)cc3)n2)cc1 [Momelotinib]	3.7	1.1	1.2	4.1	3.7	1.9	7.2	0.2
CC1(C)CNc2cc(NC(=O)c3cccnc3NCc3ccncc3)ccc21 [Motesanib]	0	0	0	0	0	0	0	0
CCCN(CCC)C(=O)C1=Cc2ccc(-c3ccc(C(=O)N4CCCC4)cc3)cc2N=C(N)C1 [Motolimod]	0	1.3	1.1	1.6	0.5	2.8	0	0
FC(F)(F)c1ccc(/C=C/c2nc(COc3ccc(CCCCn4ccnn4)cc3)co2)cc1 [Mubritinib]	0	0	9.3	6.4	0	15.5	2.3	0
Cc1cc(OCc2nnc(SC3CCCC3)n2-c2cccnc2)ccc1-c1ccc(S(C)(=O)=O)cc1 [NMS-873]	6.8	5	11.4	11.1	4.1	16.9	9.4	4.4
COc1ccc(-c2ccc3ncc4c(c3c2)n(-c2ccc(N3CCNCC3)c(C(F)(F)F)c2)c(=O)n4C)cn1 [NVP-BGT226]	11.5	12	13.1	19	11.7	11.9	18.3	13.6
Cc1ccc(C(=O)Nc2cccc(C(F)(F)F)c2)cc1Nc1nc(-c2cccnc2)nc2c1cnn2C [NVP-BHG712]	1.3	3.6	10.6	0	6.8	4.7	1.9	0
COc1cc2c(cc1OC(C)C)[C@H](c1ccc(Cl)cc1)N(c1ccc(N(C)C[C@H]3CC[C@H](N4CCN(C)C(=O)C4)CC3)cc1)C(=O)C2 [NVP-CGM097]	6.2	5	13.1	5.1	7.6	6.8	18	3.7
CN[C@@H](C)C(=O)N[C@H](C(=O)N1CCC[C@H]1c1nc(C(=O)c2ccc(F)cc2)cs1)C1CCCCC1 [NVP-LCL161]	0.9	3.9	4.5	3	14.9	2.4	0	0.2
Cn1c(Nc2ccc(C(F)(F)F)cc2)nc2cc(Oc3ccnc(-c4ncc(C(F)(F)F)[nH]4)c3)ccc21 [NVP-RAF265]	2.7	2	9.2	0.1	5.5	0	8.2	2.6
CC(=O)c1cc2c(o1)C(=O)c1ccccc1C2=O [Napabucasin]	16.8	22.1	19.6	20.5	4.2	19.1	27	15.7
CC1(C)CCC(c2ccc(Cl)cc2)=C(CN2CCN(c3ccc(C(=O)NS(=O)(=O)c4ccc(N[C@H](CCN5CCOCC5)CSc5ccccc5)c(S(=O)(=O)C(F)(F)F)c4)cc3)CC2)C1 [Navitoclax]	0	0	12	0	4	0	0	0

SMILES	drug sensitivity score [1]	drug sensitivity score [2]	drug sensitivity score [3]	drug sensitivity score [4]	drug sensitivity score [5]	drug sensitivity score [6]	drug sensitivity score [7]	drug sensitivity score [8]
CN1C(=O)N[C@H](Cc2c[nH]c3c(Cl)cccc23)C1=O [Necrostatin 2]	0	0	0	0	0	0	0	0
O=c1ncn2nc(Sc3ccc(F)cc3F)ccc2c1-c1c(Cl)cccc1Cl [Neflamapimod]	0.1	0.2	0.8	1.6	0.1	0.1	0.1	0
COc1nc(N)nc2c1ncn2[C@@H]1O[C@H](CO)[C@@H](O)[C@@H]1O [Nelarabine]	0.1	0.1	0	0	0	0.6	0	0
CCOc1cc2ncc(C#N)c(Nc3ccc(OCc4ccccn4)c(Cl)c3)c2cc1NC(=O)/C=C/CN(C)C [Neratinib]	0	0.3	3.2	3.2	1	0.5	4.9	0.2
CC1(C)NC(=O)N(c2ccc([N+](=O)[O-])c(C(F)(F)F)c2)C1=O [Nilutamide]	0	0	0.4	1.1	0	0	0	0
COC(=O)c1ccc2c(c1)NC(=O)/C2=C(\Nc1ccc(N(C)C(=O)CN2CCN(C)CC2)cc1)c1ccccc1 [Nintedanib]	2.1	5.6	1.8	6.5	1.5	5.3	0	0
NC(=O)c1cccc2cn(-c3ccc([C@@H]4CCCNC4)cc3)nc12 [Niraparib]	0	0	0	0	1.4	0	6.9	0
CC(O)c1cc(C(=O)N[C@@H](C)Cn2ccc(-c3ccc(C#N)c(Cl)c3)n2)n[nH]1 (stereo partly specified) [ODM-201]	0	1.1	2.8	1.3	0	0.2	0	0
CC(=O)c1cnc2ccc(-c3cc(Cl)c(O)c(Cl)c3)nc2c1N[C@H]1CC[C@H](CN(C)C)CC1 [OTS167]	14.3	8	19	15.4	9.5	10.5	17.4	11.4
O=C(c1cc(Cc2n[nH]c(=O)c3ccccc23)ccc1F)N1CCN(C(=O)C2CC2)CC1 [Olaparib]	1	0	0	0.4	0	3.9	7.5	0
C=CC(=O)Nc1cccc(Oc2nc(Nc3ccc(N4CCN(C)CC4)cc3)nc3ccsc23)c1 [Olmutinib]	0	0	0	0.8	0	0	0	0
COC(=O)C[C@](O)(CCCC(C)(C)O)C(=O)O[C@@H]1C(OC)=C[C@]23CCCN2CCc2cc4c(cc2[C@H]13)OCO4 [Omacetaxine]	22.4	28.5	25.9	29.1	20.4	26.1	27.2	18.2
CC1(C)CC[C@]2(NC(=O)C(C)(F)F)CC[C@]3(C)[C@H](C(=O)C=C4[C@@]5(C)C=C(C#N)C(=O)C(C)(C)[C@@H]5CC[C@]43C)[C@@H]2C1 [Omaveloxolone]	15.5	13.9	17.4	18.2	11.2	11.3	20.3	15.7
CC(C)c1cc(C(=O)N2Cc3ccc(CN4CCN(C)CC4)cc3C2)c(O)cc1O [Onalespib]	6.9	4.2	14.2	13.3	7.1	5.7	15	8
COC[C@H](NC(=O)c1cnc(C)s1)C(=O)N[C@@H](COC)C(=O)N[C@@H](Cc1ccccc1)C(=O)[C@@]1(C)CO1 [Oprozomib]	17	19.4	20.3	20.3	9.3	16.9	20	15.2
CNC(=O)c1ccc2cc([C@@]3(O)CCn4cncc43)ccc2c1 [Orteronel]	0	0	0	0	0	0	0	0
C=CC(=O)Nc1cc(Nc2nccc(-c3cn(C)c4ccccc34)n2)c(OC)cc1N(C)CCN(C)C [Osimertinib]	4	4.6	2.7	2.7	3.2	3.5	4.3	3.4
O=C(O)C(=O)O.[NH-][C@@H]1CCCC[C@H]1[NH-].[Pt+2] [Oxaliplatin]	7.3	11.7	3.2	5.8	4.7	3.5	14.5	4.3
C=CCc1cccc(/C=N/NC(=O)CN2CCN(Cc3ccccc3)CC2)c1O [PAC-1]	1.5	0	0	1.6	0	2.8	3.4	0
O=C(Nc1cccnc1)N1CCC(Cc2cccc(Oc3ccc(C(F)(F)F)cn3)c2)CC1 [PF-3845]	0	0	0.1	3.8	0	4	1	0
COc1ccccc1S(=O)(=O)Nc1ccc2c(c1)CN(C)C(=O)N2 [PFI-1]	2.8	4.1	6	4	4.7	0.1	6.2	0.1
